The subject of data set [1] is Huh7. Description: SRB cytotoxicity assay. The class given is cell-based, human. The conditions noted are these: 72 h treatment. Here is the method:
(§1) HepG2, FOCUS, Hep3B, Mahlavu, Huh7, Hep40, and PLC-PRF-5 hepatocellular carcinoma cells; MCF-7, MDA-MB-231, MDA-MB-468, SKBR3, and ZR-75 breast cancer cells; and normal-like epithelial MCF-10A breast cells were cultured in low-glucose Dulbecco’s modified Eagle’s medium (DMEM) (Biological Industries-BI) supplemented with 10% fetal bovine serum (FBS) (Gibco/Thermo Fisher Scientific), 2 mM L-Glutamine (Gibco/Thermo Fisher Scientific), 100 Units/mL Penicillin/Streptomycin, and 0.1 mM non-essential amino acid (Gibco/Thermo Fisher Scientific). SNU475 hepatocellular carcinoma cells were maintained in RPMI (Biological Industries-BI) supplemented with 10% fetal bovine serum (FBS) (Gibco/Thermo Fisher Scientific), L-Glutamine (Gibco/Thermo Fisher Scientific), and 100 Units/mL Penicillin/Streptomycin, while ZR-75 breast cancer cells were cultured RPMI (Biological Industries-BI) supplemented with 10% fetal bovine serum (FBS) (Gibco/Thermo Fisher Scientific), 1× sodium pyruvate, and %4.5 glucose. Normal-like MCF-10A breast cells were sustained in DMEM/HAM’S F12 (Hyclone) supplemented with 10% fetal bovine serum (FBS) (Gibco/Thermo Fisher Scientific), EGF (20 ng/mL), Hydrocortisone ([…]), cholera toxin (100 ng/mL), insulin (10 μg/mL), and 100 Units/mL Penicillin/Streptomycin. The cells were cultivated at 37 °C in a humidified incubator under 5% CO2.
(§2) Mahlavu, FOCUS, SNU475 (1000 cell/well in 150 μL/well); Huh7, MCF7 (2500 cell/well in 150 μL/well); HepG2, Hep3B, SKBR3 (3000 cell/well in 150 μL/well); PLC-PRF-5, Hep40 (5000 cell/well in 150 μL/well); MDA-MB-231, MDA-MB-468, MCF10A (6000 cell/well in 150 μL/well); and ZR-75 (7500 cell/well in 150 μL/well) were cultured in 96-well plates and were inoculated in an incubator for 24 hours. The compounds were dissolved in dimethyl sulfoxide (DMSO) (Sigma, St Louis, MO) as a 20 mM stock solution. The treatment of cells with the compounds was done in a concentration range starting from 40 to 2.5 μM. The compounds which were below 2.5 μM were tested in a concentration range from 2.5 to 0.15 μM. End of the 72h compound treatment, the cells were fixed using 10% (v/v) trichloroacetic acid (MERCK) for an hour and washed with ddH2O, and left for air-drying. The fixed plates were stained with 50 μL of sulforhodamine B (SRB) solution (Sigma) at RT for 10 min. To remove unbound SRB dye, acetic acid was used to wash cells three times and left for drying. The protein-bound SRB was solubilized with 10 mM Tris-base (Sigma) and their absorbance was measured with a 96-well plate reader at 515 nm wavelength (ELx800, Biotek). The IC50 values of compounds were calculated in comparison with control group DMSO. Data with R^2 values larger than 0.9 are considered significant.

Data set [2] deals with Mahlavu. Put plainly: SRB cytotoxicity assay. The conditions noted are these: 72 h treatment. The data set is classed as cell-based, human. Here is the method:
as §1, §2
Background: In SRB staining, fixed cells bind dye roughly in proportion to their protein.

Data set [3] concerns MCF7. Description: SRB cytotoxicity assay. The class given is cell-based, human. The settings on record: 72 h treatment. On the procedure:
as §1, §2

In data set [4] the test system is Huh7, Mahlavu and MCF7. Put plainly: SRB cytotoxicity, summary for all three cell lines. The data set is classed as cell-based. The conditions noted are these: Homo sapiens; one value or range for Huh7, Mahlavu and MCF7 together; read-out: IC50 against all three cell lines. Here is the method: as §2
Data set [5] concerns Huh7 and MCF7. Put plainly: SRB cytotoxicity, summary for both cell lines. The class given is cell-based. The settings on record: Homo sapiens; one value or range for Huh7 and MCF7 together; read-out: IC50 against both cell lines. Here is the method: as §2

As a reminder, the IC50 is the concentration needed to halve the response being measured. As a reminder, the melting point is the temperature of the solid-liquid transition. In turn, `Cc1ccccc1COc1ccc(-c2ccnn2-c2ccc(Cl)cc2)c(F)c1` [compound 88, 1-(4-Chlorophenyl)-5-(2-fluoro-4-((2-methylbenzyl)oxy)phenyl)-1H-pyrazole] displayed a melting point of 131.8 to 132.8 °C. In data set [1] (Homo sapiens, Huh-7, 72 h), this molecule yielded an IC50 of 1.6 µM. In data set [2] (Homo sapiens, Mahlavu, 72 h), this molecule returned an IC50 of 3.2 µM. Further, the IC50 in data set [3] (Homo sapiens, MCF7, 72 h) turned out to be 6.4 µM. Besides, the IC50 in data set [4] was in the range of 1.6 to 6.4 µM.

`Cc1ccccc1COc1ccc(-c2onc(C)c2-c2ccc(Cl)cc2)cc1` [compound 60, 4-(4-Chlorophenyl)-3-methyl-5-(4-((2-methylbenzyl)oxy)phenyl)isoxazole] showed a melting point of 153.8 to 154.9 °C. Besides, 3.8 µM corresponded to half-maximal inhibition in data set [1] (Homo sapiens, Huh-7, 72 h) (IC50). In data set [2] (Homo sapiens, Mahlavu, 72 h), the half-maximal inhibitory concentration (IC50) was 9.4 µM. In data set [3], the IC50 was found to be 19.6 µM. This molecule also registered a concentration for half-maximal inhibition (IC50) in data set [3] (Homo sapiens, MCF7, 72 h) of around 19 µM.

Regarding `Cc1onc(-c2ccc(OCc3ccccc3)cc2)c1-c1ccc(Cl)cc1` [compound 9, 3-(4-(Benzyloxy)phenyl)-4-(4-chlorophenyl)-5-methylisoxazole], the melting point was 114.7 to 115.7 °C. In data set [1], the IC50 was above 20 µM. The molecule also showed a half-maximal inhibitory concentration (IC50) in data set [1] (Homo sapiens, Huh-7, 72 h) of at least 20 µM. The IC50 in data set [3] (Homo sapiens, MCF7, 72 h) was above 20 µM. For the same molecule, in data set [5], the IC50 was at least 20 µM.

As for `Cc1cc(-c2ccc(OCc3ccccc3C)cc2)n(-c2ccc(Cl)cc2)n1` [compound 69, 1-(4-Chlorophenyl)-3-methyl-5-(4-((2-methylbenzyl)oxy)phenyl)-1H-pyrazole], the melting point lay within 111.8 to 113.6 °C. Further, in data set [1] (Homo sapiens, Huh-7, 72 h), inhibition was half-maximal at 2 µM (IC50). In data set [2] (Homo sapiens, Mahlavu, 72 h), this molecule returned a half-maximal inhibitory concentration (IC50) of 9.2 µM. The molecule further showed an IC50 in data set [3] (Homo sapiens, MCF7, 72 h) of 11.9 µM. Further, the half-inhibitory concentration (IC50) in data set [4] lay in the range of 0.7 to 14.4 µM.

Take `Cc1ccccc1COc1ccc(-c2oncc2-c2ccc(Cl)cc2)cc1` [compound 63, 4-(4-Chlorophenyl)-5-(4-((2-methylbenzyl)oxy)phenyl)isoxazole]: the melting point lay in the range of 115.3 to 117.3 °C. In data set [1] (Homo sapiens, Huh-7, 72 h), this molecule yielded an IC50 of 1.5 µM. This molecule came in with an IC50 in data set [2] of 20.1 µM. Moreover, in data set [2] (Homo sapiens, Mahlavu, 72 h), the half-inhibitory concentration (IC50) was at least 20 µM. This molecule displayed an IC50 in data set [3] above 20 µM. In data set [3] (Homo sapiens, MCF7, 72 h), this molecule returned an IC50 of at least 20 µM.

The molecule `Cc1ccccc1CNc1ccc(-c2ccnn2-c2ccc(Cl)cc2)cc1` [compound 92, 4-(1-(4-Chlorophenyl)-1H-pyrazol-5-yl)-N-(2-methylbenzyl)aniline] yielded a melting point of 141.5 to 142.8 °C. In addition, the IC50 in data set [1] (Homo sapiens, Huh-7, 72 h) was determined as 3.6 µM. Further, the IC50 in data set [2] (Homo sapiens, Mahlavu, 72 h) stood at 4.5 µM. The molecule further returned an IC50 in data set [3] (Homo sapiens, MCF7, 72 h) above 20 µM.

Take `Cc1ccccc1COc1ccc(-c2nn(C)cc2-c2ccc(Cl)cc2)cc1` [compound 72, 4-(4-Chlorophenyl)-1-methyl-3-(4-((2-methylbenzyl)oxy)phenyl)-1H-pyrazole]: the melting point lay within 142.2 to 143.4 °C. Besides, in data set [1] (Homo sapiens, Huh-7, 72 h), the half-maximal inhibitory concentration (IC50) came out at 6.7 µM. In data set [2] (Homo sapiens, Mahlavu, 72 h), this molecule yielded a half-inhibitory concentration (IC50) of 12 µM. Moreover, the IC50 in data set [3] (Homo sapiens, MCF7, 72 h) was found to be 14.4 µM. Further, the 50% inhibitory concentration (IC50) in data set [4] was in the range of 0.7 to 14.4 µM.

Take `Cc1ccccc1COc1ccc(-c2ccnn2-c2ccc(Cl)cc2)cn1` [compound 87, 5-(1-(4-Chlorophenyl)-1H-pyrazol-5-yl)-2-((2-methylbenzyl)oxy)pyridine]: the melting point lay in the range of 126.5 to 127.8 °C. For the same molecule, the IC50 in data set [1] (Homo sapiens, Huh-7, 72 h) was above 20 µM. The molecule further yielded an IC50 in data set [2] (Homo sapiens, Mahlavu, 72 h) above 20 µM. In data set [3] (Homo sapiens, MCF7, 72 h), the IC50 was above 20 µM.

`Cc1ccccc1COc1ccc(-c2ccnn2-c2ccc(Cl)cc2)cc1F` [compound 89, 1-(4-Chlorophenyl)-5-(3-fluoro-4-((2-methylbenzyl)oxy)phenyl)-1H-pyrazole] registered a melting point of 95 to 95.4 °C. The IC50 in data set [1] (Homo sapiens, Huh-7, 72 h) is above 20 µM. Further, the IC50 in data set [2] (Homo sapiens, Mahlavu, 72 h) is above 20 µM. Further, the IC50 in data set [3] (Homo sapiens, MCF7, 72 h) is above 20 µM.

`Cc1ccccc1COc1ccc(-c2[nH]ncc2-c2ccc(Cl)cc2)cc1` [compound 71, 4-(4-Chlorophenyl)-5-(4-((2-methylbenzyl)oxy)phenyl)-1H-pyrazole] came in with a melting point of 127.8 to 129.8 °C. In data set [1] (Homo sapiens, Huh-7, 72 h), this molecule had an IC50 of 8.4 µM. Besides, inhibition in data set [2] (Homo sapiens, Mahlavu, 72 h) was half-maximal at 11 µM (IC50). In data set [3] (Homo sapiens, MCF7, 72 h), this molecule displayed an IC50 of 17.5 µM. Further, in data set [4], the IC50 lay in the range of 0.7 to 14.4 µM.

As to `Cc1cc(-c2ccc(Cl)cc2)n(-c2ccc(OCc3ccccc3C)cc2)n1` [compound 79, 5-(4-Chlorophenyl)-3-methyl-1-(4-((2-methylbenyl)oxy)phenyl)-1H-pyrazole], the melting point fell in the range of 103.4 to 105.2 °C. The half-inhibitory concentration (IC50) in data set [1] (Homo sapiens, Huh-7, 72 h) is 3.9 µM. Also, the IC50 in data set [2] (Homo sapiens, Mahlavu, 72 h) stood at 9.6 µM. The midpoint of inhibition in data set [3] (Homo sapiens, MCF7, 72 h), the IC50, lay at 11.8 µM. Besides, the half-maximal inhibitory concentration (IC50) in data set [4] was in the range of 0.7 to 14.4 µM.

With `Cc1ccc(COc2ccc(-c3noc(C)c3-c3ccc(Cl)cc3)cc2)cc1` [compound 24, 4-(4-Chlorophenyl)-5-methyl-3-(4-((4-methylbenzyl)oxy)phenyl)isoxazole], the melting point was 116.9 to 118.5 °C. This molecule yielded an IC50 in data set [1] (Homo sapiens, Huh-7, 72 h) above 20 µM. In data set [3] (Homo sapiens, MCF7, 72 h), this molecule had a half-inhibitory concentration (IC50) above 20 µM. Further, the IC50 in data set [5] was at least 20 µM.

Regarding `Cc1cccc(COc2ccc(-c3noc(C)c3-c3ccc(Cl)cc3)cc2)c1` [compound 19, 4-(4-Chlorophenyl)-5-methyl-3-(4-((3-methylbenzyl)oxy)phenyl)isoxazole], the melting point lay within 119.9 to 121 °C. For the same molecule, in data set [1] (Homo sapiens, Huh-7, 72 h), the 50% inhibitory concentration (IC50) is above 20 µM. The IC50 in data set [3] (Homo sapiens, MCF7, 72 h) was above 20 µM. For the same molecule, the half-inhibitory concentration (IC50) in data set [5] is at least 20 µM.

On to `Cc1ccccc1C(=O)Nc1ccc(-c2ccnn2-c2ccc(Cl)cc2)cc1` [compound 91, N-(4-(1-(4-Chlorophenyl)-1H-pyrazol-5-yl)phenyl)-2-methylbenzamide], for which the melting point lay in the range of 179.1 to 180 °C. Moreover, the half-inhibitory concentration (IC50) in data set [1] (Homo sapiens, Huh-7, 72 h) is above 20 µM. This molecule displayed a 50% inhibitory concentration (IC50) in data set [2] (Homo sapiens, Mahlavu, 72 h) above 20 µM. This molecule also displayed an IC50 in data set [3] (Homo sapiens, MCF7, 72 h) above 20 µM.

`Cc1ccccc1COc1ccc(-c2noc(N)c2-c2ccc(Cl)cc2)cc1` [compound 65, 4-(4-Chlorophenyl)-3-(4-((2-methylbenzyl)oxy)phenyl)isoxazole-5-amine] had a melting point of 163.1 to 165.6 °C. For the same molecule, inhibition in data set [1] (Homo sapiens, Huh-7, 72 h) was half-maximal at 2 µM (IC50). This molecule also gave an IC50 in data set [2] (Homo sapiens, Mahlavu, 72 h) of 3.9 µM. The same molecule registered an IC50 in data set [3] (Homo sapiens, MCF7, 72 h) of 3.6 µM. For the same molecule, the IC50 in data set [4] is 2 to 3.9 µM.

`Cc1ccccc1COc1ccc(-c2c(-c3ccc(Cl)cc3)noc2C)cc1` [compound 67, 3-(4-Chlorophenyl)-5-methyl-4-(4-((2-methylbenzyl)oxy)phenyl)isoxazole] gave a melting point of 84.5 to 86.5 °C. Also, the 50% inhibitory concentration (IC50) in data set [1] (Homo sapiens, Huh-7, 72 h) is above 20 µM. This molecule also registered a half-maximal inhibitory concentration (IC50) in data set [2] (Homo sapiens, Mahlavu, 72 h) above 20 µM. This molecule also had an IC50 in data set [3] (Homo sapiens, MCF7, 72 h) above 20 µM. Moreover, the IC50 in data set [4] was at least 20 µM.

These data come from article PMC9583322, “Vicinal Diaryl-Substituted Isoxazole and Pyrazole Derivatives with In Vitro Growth Inhibitory and In Vivo Antitumor Activity” (ACS Omega, 2022).
